# Tests used:
# [1] = test system: platelet aggregation induced by PAF; assay: Inhibition of platelet aggregation induced by PAF; assay type: cell-based, New Zealand rabbits; conditions: Oryctolagus cuniculus, rabbit platelets, aggregometer at 57° C. [sic]
# Description: 1) Inhibition of platelet aggregation induced by PAF
# This experimentation was conducted according to the method of R. KINLOUGH. RATHBONE, J. P. CAZENAVE, M. PACKHAM and F. MUSTARD, Lab. Invest. 48, 98, 1980. In this test, New Zealand rabbits were used (male New Zealand rabbits of an average weight of 5 kg).
# The determinations are made on a chrono-log Coultronics aggregometer, at […] coupled with a graphic recorder; the results of these determinations (in molecular concentration) are reported on the table I on the central column.
# [2] = test system: omega 3 sites; assay: Global ischemia on gerbils; assay type: in vivo, gerbil; conditions: Meriones unguiculatus, 168 h; both carotides clamped 10 minutes; hippocampes taken one week later; 3H-PK 11195 2 nM; compared to control; significance marks (*, **, ***, NS) given; read-out: Global protection in %
# Description: 3) Global ischemia on gerbils
# For this test, males gerbilles were anaesthetized with brietal at the doses of 35 mg/kg IP; thereafter, both carotides were clamped for 10 minutes, then the clamping was released. Treated animals received each 10 mg/kg of the compounds of one of the examples.
# One week later, the animals were killed and both hippocampes were taken, weighed and frozen at -80° C.
# After crushing with 1 ml of TRIS-HCl buffer pH 7.4 for 30 secondes, aliquots of each 50 μl of this preparation were incubed in each 1 ml of TRIS-HCl buffer containing ^3 H-PK 11195 at 2 nM (90 Ci/mmole, NENE, Germany) for 1 hour at 25° C. For each preparation, 3 determinations were made. The density of omega 3 sites (marked by the specific ^3 H PK 11195 marker) are expressed in f-moles of PK 11195/mg of fresh tissues and converted in percentage of protection compared to control.
# [3] = Toxicity on mice; conditions: mouse, in vivo, IP
# From the text: None of these compounds of this invention was toxic per os at dose of 1 g/kg on mice.
# None of the compounds was toxic IP at the dose of 1 g/kg on mice with the exception of the examples 1, 5 and 10 for which the LD 50 was comprised between 0.5 and 1 g/kg.
# [4] = Solubility; assay type: physicochemical
# Description: Yield 38 g (85%) of an orange powder melting at 80° C. (Tottoli) insoluble in water at room temperature but soluble in DMSO.
Structure (SMILES),IC50 [1],inhibition in vivo at 10 mg/kg [2],LD50 [3],solubility in DMSO ([4]; DMSO),"solubility in water ([4]; water, room temperature)"
"COc1cc(OC)c(S(=O)(=O)N2CCc3c(sc4c3C(c3ccccc3Cl)=NCc3nnc(C)n3-4)C2)cc1S(C)(=O)=O [Example 19, 6-(2-chlorophenyl)-9-[5-mesyl 2,4-dimethoxy]phenylsulphonyl-7,8,9,10-tetrahydro-1-methyl-4H-pyrido [4',3':4,5] thieno [3,2-f] 1,2,4-triazolo [4,3-a] 1,4-diazepine]",375 nM,8.4%,,,
"Cc1nnc2n1-c1sc3c(c1C(c1ccccc1Cl)=NC2)CCN(S(=O)(=O)c1ccco1)C3 [Example 12, 6-(2-chlorophenyl)-9-α-furylphenylsulphonyl-7,8,9,10-tetrahydro-1-methyl 4H-pyrido [4',3':4,5] thieno [3,2-f] 1,2,4-triazolo [4,3-a] 1,4-diazepine]",110 nM,21.4%,,,
"CCCCCCCCCCCCCCCCS(=O)(=O)N1CCc2c(sc3c2C(c2ccccc2Cl)=NCc2nnc(C)n2-3)C1 [Example 1, 6-(2-chlorophenyl)-9-hexadecylsulphonyl-7,8,9,10-tetrahydro-1-methyl 4H-pyrido [4',3':4,5] thieno [3,2-f] 1,2,4-triazolo [4,3-a] 1,4-diazepine]",96.3 nM,,500 to 1000 mg/kg,soluble,insoluble
"Cc1nnc2n1-c1sc3c(c1C(c1ccccc1Cl)=NC2)CCN(S(=O)(=O)c1ccc(C(F)(F)F)cc1)C3 [Example 4, 6-(2-chlorophenyl)-9-(trifluoromethyl)phenylsulphonyl-7,8,9,10-tetrahydro-1-methyl 4H-pyrido [4',3':4,5] thieno [3,2-f] 1,2,4-triazolo [4,3-a] 1,4-diazepine]",98.2 nM,38.7%,,,
"Cc1nnc2n1-c1sc3c(c1C(c1ccccc1Cl)=NC2)CCN(S(=O)(=O)c1cccs1)C3 [Example 11, 6-(2-chlorophenyl)-9-α-thienylphenylsulphonyl-7,8,9,10-tetrahydro-1-methyl 4H-pyrido [4',3':4,5] thieno [3,2-f] 1,2,4-triazolo [4,3-a] 1,4-diazepine]",144 nM,32.7%,,,
"Cc1nnc2n1-c1sc3c(c1C(c1ccccc1Cl)=NC2)CCN(S(=O)(=O)c1ccc(C(=O)O)cc1)C3 [Example 16, 6-(2-chlorophenyl)-9-(4-carboxy)phenylsulphonyl-7,8,9,10-tetrahydro-1-methyl-4H-pyrido [4',3':4,5] thieno [3,2-f] 1,2,4-triazolo [4,3-a] 1,4-diazepine]",20.1 nM,23.9%,,,
"Cc1nnc2n1-c1sc3c(c1C(c1ccccc1Cl)=NC2)CCN(S(=O)(=O)C(C)C)C3 [Example 20, 6-(2-chlorophenyl)-9-isopropylsulfonyl-7,8,9,10-tetrahydro-1-methyl-4H-pyrido [4',3':4,5] thieno [3,2-f] 1,2,4-triazolo [4,3-a] 1,4-diazepine]",517 nM,47.5%,,,
"Cc1nnc2n1-c1sc3c(c1C(c1ccccc1Cl)=NC2)CCN(S(=O)(=O)c1ccc2ccccc2c1)C3 [Example 15, 6-(2-chlorophenyl)-9-(2-naphtyl)sulphonyl-7,8,9,10-tetrahydro-1-methyl-4H-pyrido [4',3':4,5] thieno [3,2-f] 1,2,4-triazolo [4,3-a] 1,4-diazepine]",431 nM,34.8%,,,
"Cc1nnc2n1-c1sc3c(c1C(c1ccccc1Cl)=NC2)CCN(S(=O)(=O)c1ccc(Oc2ccc([N+](=O)[O-])cc2)cc1)C3 [Example 10, 6-(2-chlorophenyl)-9-[4-(4'-nitrophenoxy)]phenylsulphonyl-7,8,9,10-tetrahydro-1-methyl 4H-pyrido [4',3':4,5] thieno [3,2-f] 1,2,4-triazolo [4,3-a] 1,4-diazepine]",1.41 nM,19.3%,500 to 1000 mg/kg,,
"COc1ccc(S(=O)(=O)N2CCc3c(sc4c3C(c3ccccc3Cl)=NCc3nnc(C)n3-4)C2)cc1 [Example 9, 6-(2-chlorophenyl)-9-(4-methoxy)phenylsulphonyl-7,8,9,10-tetrahydro-1-methyl 4H-pyrido [4',3':4,5] thieno [3,2-f] 1,2,4-triazolo [4,3-a] 1,4-diazepine]",122 nM,9.4%,,,
"COc1ccc(S(=O)(=O)N2CCc3c(sc4c3C(c3ccccc3Cl)=NCc3nnc(C)n3-4)C2)cc1OC [Example 7, 6-(2-chlorophenyl)-9-(3,4-dimethoxy)phenylsulphonyl-7,8,9,10-tetrahydro-1-methyl 4H-pyrido [4',3':4,5] thieno [3,2-f] 1,2,4-triazolo [4,3-a] 1,4 diazepine]",119 nM,26.6%,,,
"COc1cc(OC)c(S(=O)(=O)N2CCc3c(sc4c3C(c3ccccc3Cl)=NCc3nnc(C)n3-4)C2)cc1SC [Example 18, 6-(2-chlorophenyl)-9-[5-methylthio 2,4-dimethoxy]phenyl sulphonyl-7,8,9,10-tetrahydro-1-methyl-4H-pyrido [4',3':4,5] thieno [3,2-f] 1,2,4-triazolo [4,3-a] 1,4-diazepine]",22.2 nM,10%,,,
"Cc1nnc2n1-c1sc3c(c1C(c1ccccc1Cl)=NC2)CCN(S(=O)(=O)c1ccc(C(C)(C)C)cc1)C3 [Example 6, 6-(2-chlorophenyl)-9-(4-tert.butyl)phenylsuphonyl-7,8,9,10-tetrahydro-1-methyl 4H-pyrido [4',3':4,5] thieno [3,2-f] 1,2,4-triazolo [4,3-a] 1,4-diazepine]",117 nM,13.8%,,,
"Cc1cc(C)c(S(=O)(=O)N2CCc3c(sc4c3C(c3ccccc3Cl)=NCc3nnc(C)n3-4)C2)c(C)c1 [Example 8, 6-(2-chlorophenyl)-9-(2,4,6-trimethyl)phenylsulphonyl-7,8,9,10-tetrahydro-1-methyl 4H-pyrido [4',3':4,5] thieno [3,2-f] 1,2,4-triazolo [4,3-a] 1,4-diazepine]",25.1 nM,30.5%,,,
"COc1ccc(S(=O)(=O)N2CCc3c(sc4c3C(c3ccccc3Cl)=NCc3nnc(C)n3-4)C2)c(OC)c1OC [Example 5, 6-(2-chlorophenyl)-9-(4,5,6-trimethoxy)phenylsulphonyl-7,8,9,10-tetrahydro-1-methyl 4H-pyrido [4',3':4,5] thieno [3,2-f] 1,2,4-triazolo [4,3-a] 1,4-diazepine]",187 nM,28.1%,500 to 1000 mg/kg,,
"Cc1nnc2n1-c1sc3c(c1C(c1ccccc1Cl)=NC2)CCN(S(=O)(=O)c1ccc[nH]1)C3 [Example 13, 6-(2-chlorophenyl)-9-(α-pyrrolyl)sulphonyl-7,8,9,10-tetrahydro-1-methyl-4H-pyrido [4',3':4,5] thieno [3,2-f] 1,2,4-triazolo [4,3-a] 1,4-diazepine]",215 nM,29.3%,,,
"Cc1nnc2n1-c1sc3c(c1C(c1ccccc1Cl)=NC2)CCN(S(=O)(=O)c1c(Cl)cc(Cl)cc1Cl)C3 [Example 3, 6-(2-chlorophenyl)-9-(2,4,6-trichloro)phenylsulphonyl-7,8,9,10-tetrahydro-1-methyl 4H-pyrido [4',3':4,5] thieno [3,2-f] 1,2,4-triazolo [4,3-a] 1,4-diazepine]",37.1 nM,33.3%,,,
"Cc1nnc2n1-c1sc3c(c1C(c1ccccc1Cl)=NC2)CCN(S(=O)(=O)c1cccc2cccnc12)C3 [Example 14, 6-(2-chlorophenyl)-9-(8-quinolyl)sulfonyl-7,8,9,10-tetrahydro-1-methyl-4H-pyrido-[4',3':4,5] thieno [3,2-f] 1,2,4-triazolo [4,3-a] 1,4-diazepine]",65 nM,17.4%,,,
"Cc1nnc2n1-c1sc3c(c1C(c1ccccc1Cl)=NC2)CCN(S(=O)(=O)c1ccccc1)C3 [Example 2, 6-(2-chlorophenyl)-9-phenylsulphonyl-7,8,9,10-tetrahydro-1-methyl 4H-pyrido [4',3':4,5] thieno [3,2-f] 1,2,4-triazolo [4,3-a] 1,4-diazepine]",225 nM,38.3%,,,
"Cc1nnc2n1-c1sc3c(c1C(c1ccccc1Cl)=NC2)CCN(S(=O)(=O)c1ccc(Oc2ccc(C(=O)O)cc2)cc1)C3 [Example 17, 6-(2-chlorophenyl)-9-[4-(4'-(carboxy)phenyloxy)phenyl] sulphonyl-7,8,9,10-tetrahydro-1-methyl-4H-pyrido [4',3':4,5] thieno [3,2-f] 1,2,4-triazolo [4,3-a] 1,4-diazepine]",472 nM,7.8%,,,

# Reference: patent US5049560A, “Sulfonyl derivatives of thieno-triazolo-diazepines useful as anti-PAF and anti-ischemic agents” (priority 1989, dated 1991)
